Data from patent US3970648A, “2-[2-(5-Nitro-2-furyl)vinyl]-4-(anilino)quinazolines” (Diamond Shamrock Corporation, priority 1974, dated 1976).

Experiment: Growth promotion in chicks, titration dosage, Example IX (Table III)
Format: in vivo, broiler cross chicks
From the text: The concentrations used in this test were 6.25, 12.5, 25, 50, 100, 200 and 400 g of the Product of Example I per ton of the Basal Ration described in Example VII above. The same number and size chick treatment groups were used in this test as in Example VIII above.

Structure (SMILES): O=[N+]([O-])c1ccc(C=Cc2nc(Nc3ccc(O)cc3)c3ccccc3n2)o1 [Example I, 2-[2-(5-nitro-2-furyl)vinyl]-4-(p-hydroxyanilino)quinazoline]
- Average 4 Week Performance: Feed Efficiency (6.25 g/T): 1.657
- Average 4 Week Performance: Gain (6.25 g/T): 714.6 g
- Improved Response Over Basal Ration: Feed Efficiency (6.25 g/T): +3.4%
- Improved Response Over Basal Ration: Gain (6.25 g/T): -3.4%
- activity (in words) (6.25 g/T): little or no activity
- Average 4 Week Performance: Feed Efficiency (12.5 g/T): 1.652
- Average 4 Week Performance: Gain (12.5 g/T): 765.3 g
- Improved Response Over Basal Ration: Feed Efficiency (12.5 g/T): +3.7%
- Improved Response Over Basal Ration: Gain (12.5 g/T): +3.4%
- Average 4 Week Performance: Feed Efficiency (25 g/T): 1.603
- Average 4 Week Performance: Gain (25 g/T): 805.7 g
- Improved Response Over Basal Ration: Feed Efficiency (25 g/T): +6.5%
- Improved Response Over Basal Ration: Gain (25 g/T): +8.9%
- Average 4 Week Performance: Feed Efficiency (50 g/T): 1.609
- Average 4 Week Performance: Gain (50 g/T): 785.3 g
- Improved Response Over Basal Ration: Feed Efficiency (50 g/T): +6.2%
- Improved Response Over Basal Ration: Gain (50 g/T): +6.1%
- Average 4 Week Performance: Feed Efficiency (100 g/T): 1.663
- Average 4 Week Performance: Gain (100 g/T): 742.7 g
- Improved Response Over Basal Ration: Feed Efficiency (100 g/T): +3.0%
- Improved Response Over Basal Ration: Gain (100 g/T): +0.4%
- weight gain improvement (in words) (100 g/T): unexplained absence of weight gain improvement
- Average 4 Week Performance: Feed Efficiency (200 g/T): 1.609
- Average 4 Week Performance: Gain (200 g/T): 782.5 g
- Improved Response Over Basal Ration: Feed Efficiency (200 g/T): +6.2%
- Improved Response Over Basal Ration: Gain (200 g/T): +5.8%
- Average 4 Week Performance: Feed Efficiency (400 g/T): 1.678
- Average 4 Week Performance: Gain (400 g/T): 751.5 g
- Improved Response Over Basal Ration: Feed Efficiency (400 g/T): +2.2%
- Improved Response Over Basal Ration: Gain (400 g/T): +1.6%
- response (in words) (400 g/T): sharp downturn
- level at which noticeable growth promotion began (in vivo): 12.5 g/T
- optimum concentration (economics and efficacy) (in vivo): 25 g/T
